According to publication doi:10.1101/2021.04.08.439011v1 (biorxiv, 2021):
Like-named read-outs stand apart in the source and are kept apart here.

What was measured:
PIK3CD = PIK3CD (Homo sapiens, UniProt O00329); settings: 1 µM; binder
MST4 = MST4 (Homo sapiens, UniProt Q9P289); settings: 1 µM; binder
MINK = MINK (Homo sapiens, UniProt Q8N4C8); settings: 1 µM; binder
BIKE = BIKE (Homo sapiens, UniProt Q9NSY1); settings: 1 µM; binder
p38-gamma = p38-gamma (Homo sapiens, UniProt P53778); settings: 1 µM; binder
p38-gamma, sequence (P53778 whole entry): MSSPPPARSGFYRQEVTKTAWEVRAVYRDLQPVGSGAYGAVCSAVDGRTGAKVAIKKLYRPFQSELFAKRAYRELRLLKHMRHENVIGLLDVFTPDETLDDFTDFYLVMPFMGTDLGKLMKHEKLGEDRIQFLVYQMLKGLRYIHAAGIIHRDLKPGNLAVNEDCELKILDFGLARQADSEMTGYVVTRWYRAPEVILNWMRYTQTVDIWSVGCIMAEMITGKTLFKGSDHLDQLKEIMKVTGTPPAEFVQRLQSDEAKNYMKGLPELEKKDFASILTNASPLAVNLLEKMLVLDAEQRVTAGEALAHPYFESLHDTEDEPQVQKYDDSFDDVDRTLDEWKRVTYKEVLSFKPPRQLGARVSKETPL

RPS6KA4 = RPS6KA4 (Homo sapiens, UniProt O75676); settings: Kin.Dom.1 N-terminal; binder
YSK1 = YSK1 (Homo sapiens, UniProt O00506); settings: 1 µM; binder
DRAK2 = DRAK2 (Homo sapiens, UniProt O94768); settings: 1 µM; binder
DRAK2, sequence (O94768 whole entry): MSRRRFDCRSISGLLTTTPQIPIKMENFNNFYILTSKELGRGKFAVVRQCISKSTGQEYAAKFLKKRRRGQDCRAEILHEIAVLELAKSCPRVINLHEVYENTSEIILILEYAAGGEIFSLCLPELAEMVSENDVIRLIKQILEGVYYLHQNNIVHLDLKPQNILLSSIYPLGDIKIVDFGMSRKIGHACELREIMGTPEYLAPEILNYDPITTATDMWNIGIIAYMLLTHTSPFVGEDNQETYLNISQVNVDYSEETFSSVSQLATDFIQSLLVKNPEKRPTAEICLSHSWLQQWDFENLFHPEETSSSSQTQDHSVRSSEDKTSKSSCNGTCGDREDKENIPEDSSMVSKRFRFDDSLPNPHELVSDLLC

CDC2L5 = CDC2L5 (Homo sapiens, UniProt Q14004); settings: 1 µM; binder
ABL1(F317L) = ABL1(F317L) (Homo sapiens, UniProt P00519, F317L); settings: 1 µM, binder
FGFR4 = FGFR4 (Homo sapiens, UniProt P22455); settings: 1 µM; binder
SGK = SGK (Homo sapiens, UniProt O00141); settings: 1 µM; binder
SGK, sequence (O00141 whole entry): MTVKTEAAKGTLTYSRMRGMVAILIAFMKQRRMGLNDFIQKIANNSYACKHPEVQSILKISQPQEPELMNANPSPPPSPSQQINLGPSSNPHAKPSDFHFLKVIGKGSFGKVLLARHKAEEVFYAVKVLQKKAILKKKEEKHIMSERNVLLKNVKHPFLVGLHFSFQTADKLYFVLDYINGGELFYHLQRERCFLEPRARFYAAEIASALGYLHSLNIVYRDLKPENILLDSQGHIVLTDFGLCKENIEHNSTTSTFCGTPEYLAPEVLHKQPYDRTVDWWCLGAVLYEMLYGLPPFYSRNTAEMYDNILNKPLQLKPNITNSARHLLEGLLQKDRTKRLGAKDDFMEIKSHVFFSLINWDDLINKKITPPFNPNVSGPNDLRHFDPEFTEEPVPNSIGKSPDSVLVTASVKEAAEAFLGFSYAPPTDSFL

TGFBR1 = TGFBR1 (Homo sapiens, UniProt P36897); settings: 1 µM; binder
PIK4CB = PIK4CB (Homo sapiens, UniProt Q9UBF8); settings: 1 µM; binder
MARK2 = MARK2 (Homo sapiens, UniProt Q7KZI7); settings: 1 µM; binder
PCTK3 = PCTK3 (Homo sapiens, UniProt Q07002); settings: 1 µM; binder
LRRK2 = LRRK2 (Homo sapiens, UniProt Q5S007); settings: 1 µM; binder
ABL1(T315I) = ABL1(T315I) (Homo sapiens, UniProt P00519, T315I); settings: nonphosphorylated; 1 µM; binder
BMPR1B = BMPR1B (Homo sapiens, UniProt O00238); settings: 1 µM; binder
BMPR1B, sequence (O00238 whole entry): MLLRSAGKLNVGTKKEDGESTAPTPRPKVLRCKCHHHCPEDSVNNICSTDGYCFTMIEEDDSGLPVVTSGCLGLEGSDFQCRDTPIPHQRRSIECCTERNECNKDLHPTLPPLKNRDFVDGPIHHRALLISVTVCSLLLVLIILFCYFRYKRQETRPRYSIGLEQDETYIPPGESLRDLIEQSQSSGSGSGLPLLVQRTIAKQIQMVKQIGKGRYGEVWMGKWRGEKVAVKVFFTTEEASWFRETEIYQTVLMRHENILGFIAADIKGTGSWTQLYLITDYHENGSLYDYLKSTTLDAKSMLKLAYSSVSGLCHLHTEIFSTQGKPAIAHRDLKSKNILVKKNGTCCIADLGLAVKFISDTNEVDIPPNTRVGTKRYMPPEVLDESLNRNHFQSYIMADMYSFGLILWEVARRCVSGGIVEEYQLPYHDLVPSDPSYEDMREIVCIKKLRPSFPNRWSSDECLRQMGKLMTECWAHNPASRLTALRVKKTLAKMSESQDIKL

PNCK = PNCK (Homo sapiens, UniProt Q6P2M8); settings: 1 µM; binder
ANKK1 = ANKK1 (Homo sapiens, UniProt Q8NFD2); settings: 1 µM; binder
ANKK1, sequence (Q8NFD2 whole entry): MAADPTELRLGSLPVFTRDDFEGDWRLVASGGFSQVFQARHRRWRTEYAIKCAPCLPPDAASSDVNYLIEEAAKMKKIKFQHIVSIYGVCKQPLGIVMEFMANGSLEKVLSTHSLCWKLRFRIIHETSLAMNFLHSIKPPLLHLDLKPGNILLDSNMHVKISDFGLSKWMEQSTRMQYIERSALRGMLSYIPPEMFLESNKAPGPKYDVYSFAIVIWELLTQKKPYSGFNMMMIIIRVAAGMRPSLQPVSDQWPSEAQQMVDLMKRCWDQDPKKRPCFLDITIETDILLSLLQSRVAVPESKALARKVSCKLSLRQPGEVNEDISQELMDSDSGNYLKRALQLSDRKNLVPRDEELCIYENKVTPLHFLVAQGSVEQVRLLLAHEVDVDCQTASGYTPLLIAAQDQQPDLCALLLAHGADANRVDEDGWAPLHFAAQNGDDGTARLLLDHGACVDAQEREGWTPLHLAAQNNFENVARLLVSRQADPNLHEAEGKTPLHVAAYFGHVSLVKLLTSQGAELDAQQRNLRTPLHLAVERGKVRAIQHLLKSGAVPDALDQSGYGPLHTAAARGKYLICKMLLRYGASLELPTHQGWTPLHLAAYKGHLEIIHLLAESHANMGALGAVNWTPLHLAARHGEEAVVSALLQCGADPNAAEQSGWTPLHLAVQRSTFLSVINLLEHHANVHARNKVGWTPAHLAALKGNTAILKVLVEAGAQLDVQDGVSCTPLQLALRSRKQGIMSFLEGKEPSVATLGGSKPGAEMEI

PIKFYVE = PIKFYVE (Homo sapiens, UniProt Q9Y2I7); settings: 1 µM; binder
ERBB4 = ERBB4 (Homo sapiens, UniProt Q15303); settings: 1 µM; binder
FES = FES (Homo sapiens, UniProt P07332); settings: 1 µM; binder
PAK7 = PAK7 (Homo sapiens, UniProt Q9P286); settings: 1 µM; binder
DCAMKL2 = DCAMKL2 (Homo sapiens, UniProt Q8N568); settings: 1 µM; binder
GCN2(Kin.Dom.2,S808G) = GCN2(Kin.Dom.2,S808G) (Homo sapiens, UniProt Q9P2K8, S808G); settings: 1 µM; binder
p38-delta = p38-delta (Homo sapiens, UniProt O15264); settings: 1 µM; binder
MEK6 = MEK6 (Homo sapiens, UniProt P52564); settings: 1 µM; binder
MEK6, sequence (P52564 whole entry): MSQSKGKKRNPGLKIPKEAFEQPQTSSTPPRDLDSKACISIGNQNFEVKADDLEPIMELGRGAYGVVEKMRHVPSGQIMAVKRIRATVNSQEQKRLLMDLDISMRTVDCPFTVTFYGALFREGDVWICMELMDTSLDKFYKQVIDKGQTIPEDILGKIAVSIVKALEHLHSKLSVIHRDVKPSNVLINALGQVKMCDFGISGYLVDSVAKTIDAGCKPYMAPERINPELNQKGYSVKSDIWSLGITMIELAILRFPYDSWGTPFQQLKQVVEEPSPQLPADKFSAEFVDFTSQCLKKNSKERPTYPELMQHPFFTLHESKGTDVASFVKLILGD

BLK = BLK (Homo sapiens, UniProt P51451); settings: 1 µM; binder
BLK, sequence (P51451 whole entry): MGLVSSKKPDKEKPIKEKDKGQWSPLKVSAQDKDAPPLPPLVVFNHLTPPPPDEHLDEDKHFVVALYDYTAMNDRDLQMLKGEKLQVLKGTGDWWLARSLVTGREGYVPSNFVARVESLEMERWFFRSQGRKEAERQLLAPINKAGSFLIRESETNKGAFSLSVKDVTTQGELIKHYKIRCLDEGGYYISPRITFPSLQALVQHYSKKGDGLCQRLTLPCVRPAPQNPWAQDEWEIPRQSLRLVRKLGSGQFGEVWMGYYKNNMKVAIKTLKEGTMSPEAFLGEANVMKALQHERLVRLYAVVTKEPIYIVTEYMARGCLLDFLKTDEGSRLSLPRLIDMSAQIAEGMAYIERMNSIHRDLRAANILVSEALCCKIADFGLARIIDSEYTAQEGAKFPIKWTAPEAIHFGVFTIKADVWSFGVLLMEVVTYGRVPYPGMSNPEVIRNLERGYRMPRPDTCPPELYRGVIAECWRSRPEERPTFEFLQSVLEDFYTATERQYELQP

MINK, sequence (Q8N4C8 whole entry): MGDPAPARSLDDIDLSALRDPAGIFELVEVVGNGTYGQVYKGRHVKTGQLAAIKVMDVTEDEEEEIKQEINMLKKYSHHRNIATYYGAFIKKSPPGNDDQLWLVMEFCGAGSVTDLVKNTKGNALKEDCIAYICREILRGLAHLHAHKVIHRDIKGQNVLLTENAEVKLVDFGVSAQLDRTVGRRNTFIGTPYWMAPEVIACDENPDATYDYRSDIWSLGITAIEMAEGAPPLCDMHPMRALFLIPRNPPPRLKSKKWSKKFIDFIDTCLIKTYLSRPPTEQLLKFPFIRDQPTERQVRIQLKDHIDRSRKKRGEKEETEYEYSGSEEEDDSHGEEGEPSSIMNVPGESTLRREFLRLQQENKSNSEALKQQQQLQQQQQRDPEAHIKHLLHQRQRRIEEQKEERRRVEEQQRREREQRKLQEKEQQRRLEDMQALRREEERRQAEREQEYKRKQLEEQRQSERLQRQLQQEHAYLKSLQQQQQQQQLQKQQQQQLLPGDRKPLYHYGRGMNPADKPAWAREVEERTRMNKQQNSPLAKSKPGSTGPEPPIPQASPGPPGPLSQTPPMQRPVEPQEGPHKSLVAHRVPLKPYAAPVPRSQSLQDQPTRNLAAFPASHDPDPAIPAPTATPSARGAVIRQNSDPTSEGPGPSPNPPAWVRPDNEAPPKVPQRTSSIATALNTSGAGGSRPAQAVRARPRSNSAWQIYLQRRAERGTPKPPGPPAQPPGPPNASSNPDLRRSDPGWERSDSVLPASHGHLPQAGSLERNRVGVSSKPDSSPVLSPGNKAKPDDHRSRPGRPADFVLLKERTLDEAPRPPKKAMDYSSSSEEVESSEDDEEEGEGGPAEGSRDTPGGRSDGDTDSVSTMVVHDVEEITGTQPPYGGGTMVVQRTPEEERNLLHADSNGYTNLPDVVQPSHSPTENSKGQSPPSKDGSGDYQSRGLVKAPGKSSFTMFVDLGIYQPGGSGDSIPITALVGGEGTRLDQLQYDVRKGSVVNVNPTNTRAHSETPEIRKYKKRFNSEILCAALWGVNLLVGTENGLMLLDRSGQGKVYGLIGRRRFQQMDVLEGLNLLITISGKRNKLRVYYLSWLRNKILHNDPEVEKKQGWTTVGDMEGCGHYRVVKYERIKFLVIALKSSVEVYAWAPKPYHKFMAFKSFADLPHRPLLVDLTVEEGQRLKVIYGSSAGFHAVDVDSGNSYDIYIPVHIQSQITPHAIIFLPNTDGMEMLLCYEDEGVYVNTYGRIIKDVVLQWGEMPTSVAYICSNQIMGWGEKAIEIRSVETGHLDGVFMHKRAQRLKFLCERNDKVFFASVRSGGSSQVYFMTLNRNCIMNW
MST4, sequence (Q9P289 whole entry): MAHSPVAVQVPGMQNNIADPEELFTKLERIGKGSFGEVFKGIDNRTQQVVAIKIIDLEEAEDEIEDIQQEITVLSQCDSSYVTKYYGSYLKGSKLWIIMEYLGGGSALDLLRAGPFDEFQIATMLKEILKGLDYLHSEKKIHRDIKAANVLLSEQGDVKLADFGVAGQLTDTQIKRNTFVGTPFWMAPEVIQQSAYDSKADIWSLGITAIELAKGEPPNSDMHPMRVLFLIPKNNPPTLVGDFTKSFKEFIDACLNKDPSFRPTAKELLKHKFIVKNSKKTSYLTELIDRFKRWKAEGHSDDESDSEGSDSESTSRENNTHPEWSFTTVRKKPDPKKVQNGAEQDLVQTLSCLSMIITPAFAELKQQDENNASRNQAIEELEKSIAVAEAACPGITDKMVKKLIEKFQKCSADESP

CNc1ncc2cc(-c3ccc(-c4cccc(C)n4)cc3Cl)c(=O)n(C[C@H]3OC[C@H](N)CO3)c2n1 [compound 6, G-5555]
Percent Control (PIK3CD): 97% | Percent Control (MST4): 0% | Percent Control (MINK): 26% | Percent Control (BIKE): 100% | Percent Control (p38-gamma): 100% | Percent Control (RPS6KA4): 100% | Percent Control (YSK1): 36% | Percent Control (DRAK2): 100% | Percent Control (CDC2L5): 97% | Percent Control (ABL1(F317L); nonphosphorylated): 87% | Percent Control (ABL1(F317L); phosphorylated): 100% | Percent Control (FGFR4): 100% | Percent Control (SGK): 100% | Percent Control (TGFBR1): 100% | Percent Control (PIK4CB): 100% | Percent Control (MARK2): 49% | Percent Control (PCTK3): 100% | Percent Control (LRRK2): 100% | Percent Control (ABL1(T315I)): 100% | Percent Control (BMPR1B): 96% | Percent Control (PNCK): 30% | Percent Control (ANKK1): 87% | Percent Control (PIKFYVE): 100% | Percent Control (ERBB4): 100% | Percent Control (FES): 84% | Percent Control (PAK7): 82% | Percent Control (DCAMKL2): 51% | Percent Control (GCN2(Kin.Dom.2,S808G)): 63% | Percent Control (p38-delta): 100% | Percent Control (MEK6): 30% | Percent Control (BLK): 99%
